Measured values published in patent publication US10202366B2, “Methods of promoting wound healing using CRM1 inhibitors” (Karyopharm Therapeutics Inc., priority 2013, dated 2019).
pIC50: −log10 of the molar value.

Test system: MM1.S cells
Experiment: MTT cell proliferation assay
Assay type: cell-based
Details: Homo sapiens
Description: The MTT cell proliferation assay was used to study the cytotoxic properties of certain compounds. The assay was performed according to the method described by Roche Molecular Biochemicals, with minor modifications. The assay is based on the cleavage of the tetrazolium salt, MTT, in the presence of an electron-coupling reagent. The water-insoluble formazan salt produced must be solubilized in an additional step. Cells grown in a 96-well tissue culture plate were incubated with the MTT solution for approximately 4 hours. After this incubation period, a water-insoluble formazan dye formed. After solubilization, the formazan dye was quantitated using a scanning multi-well spectrophotometer (ELISA reader). […] The cells were seeded at 5,000-10,000 cells in each well of 96-well plate in 100 μL of fresh culture medium and were allowed to attach overnight. The stock solutions of the compounds were diluted in 100 μL cell culture medium to obtain eight concentrations of each test compound, ranging from 1 nM to 30 μM. […] All optical densities were measured at 490 nm using a Vmax Kinetic Microplate Reader (Molecular Devices). In most cases, the assay was performed in duplicate and the results were presented as a mean percent inhibition to the negative control±SE. The following formula was used to calculate the percent of inhibition: Inhibition (%)=(1−(ODo/OD))×100. […]

Row | pIC50 | SMILES
1 | 7.70 | CC(C)Oc1cc(-c2ncn(/C=C\C(=O)OCc3cncnc3)n2)cc(C(F)(F)F)c1 [Compound 129, Pyrimidin-5-Ylmethyl (Z)-3-(3-(3-Isopropoxy-5-(Trifluoromethyl)Phenyl)-1H-1,2,4-Triazol-1-Yl)Acrylate]
2 | 8.40 | CC(C)Oc1cc(-c2ncn(/C=C\C(=O)OCc3cnccn3)n2)cc(C(F)(F)F)c1 [Compound 130, Pyrazin-2-Ylmethyl (Z)-3-(3-(3-Isopropdxy-5-(Trifluoromethyl)Phenyl)-1h-1,2,4-Triazol-1-Yl)Acrylate]
